Experimental findings from article PMC8419995, “In vitro and in vivo efficacy of thiacloprid against Echinococcus multilocularis” (Parasites & Vectors, 2021) are described below.

Experiment [1] concerns T lymphocyte subsets in metacestodes and spleen. Briefly: T lymphocyte subset analysis and spleen index in infected mice. Type of experiment: in vivo. Particulars: infected BALB/c mice; 6 weeks oral treatment; flow cytometry. As for the experimental part:
In vitro-grown metacestode vesicles were pressed through a 500 µm mesh and washed three times with sterile PBS. The parasite tissue was then taken up in an equal volume of sterile PBS. Each mouse was intraperitoneally injected with 200 μl suspension. Seven mice were injected with 200 μl PBS as the control group. Twenty-eight infected mice were randomly distributed into four groups (7 mice/group): the untreated group was not administered any drug; the ABZ group was treated with ABZ orally (100 mg/kg/day); and the Thia15 group and Thia30 group received thiacloprid orally (15 mg/kg/day and 30 mg/kg/day). Treatments of mice started 2 weeks post-infection, and treatments were administered daily for 6 weeks. […] All metacestode tissues were collected, and the total wet weight of metacestodes per mice was determined. Furthermore, the content of cytokines in microcyst fluid was detected by enzyme-linked immunosorbent assay (ELISA). […]
The spleens of mice were removed and then weighed to calculate the spleen index. […] The lymphocytes were incubated with FITC-conjugated anti-CD3 (BioLegend, San Diego, CA, USA), PE-conjugated anti-CD4 (BioLegend), and APC-conjugated anti-CD8 (BioLegend) antibodies, and then analyzed by flow cytometry using a NovoCyte flow cytometer (ACEA/Agilent, Santa Clara, CA, USA).
(A flow cytometer gives signals particle by particle.)

Experiment [2] deals with collagen I and III, MMP1, MMP3, MMP9, MMP13. Briefly: Collagen and MMP expression in the host-lesion microenvironment (TEM, Sirius red, qPCR, western blot). Type of experiment: in vivo. The conditions noted are these: infected BALB/c mice, 6 weeks oral treatment. The method, then: The metacestodes were fixed with 4% paraformaldehyde and embedded in paraffin to make sections with a thickness of […]. The sections were dewaxed with water, stained with Picrosirius red for 10 min, rinsed and dehydrated with anhydrous ethanol, and sealed with neutral balsam after the xylene was transparent. Each section of 400× visual field image was randomly collected. The ratio of the area of all images collected to the area of the visual field was measured using the ImageJ analysis system, and the percentage of collagen fibre was calculated.
The variations in the microstructure of the protoscoleces or metacestodes were observed under an electron microscope. […] They were washed twice in PBS and then fixed for 3 h with 2.5% glutaraldehyde (pH = 7.2); next, they underwent 2 h post-fixation in 2% OsO4 (SPI-CHEM, West Chester, PA, USA). Subsequently, the samples were washed in double-distilled water and treated with 1% uranyl acetate for 25 min. After the samples were washed again in double-distilled water, dehydration was conducted in ethanol at continuous gradients (30–50–70–80–90–95–100%) over a period of 10 min. For SEM analysis, the dehydrated samples were dipped into hexamethyldisiloxane and then air-dried in a fume hood. The sample was observed under a Hitachi SU8100 scanning electron microscope (Tokyo, Japan) after gold spraying. For TEM analysis, the dehydrated samples passed through a dehydrating agent, and an epoxy resin (SPI-CHEM) permeated and polymerized at 60 °C overnight. A 50-nm ultra-thin section was prepared and then loaded on a 300-mesh copper grid. It was stained with uranyl acetate and lead citrate (SPI-CHEM). The sample was observed under a Hitachi HT7700 transmission electron microscope. To reduce the bias, electron microscopy was observed by professionals in the case of an unknown group.
Total RNA was extracted with TRIzol Reagent (Thermo Fisher Scientific, Waltham, MA, USA) according to the manufacturer’s instructions. The purity and concentrations of RNA were quantified using NanoDrop 2000 absorbance measurements at 260/280 nm. Total RNA was converted into cDNA sequences using the FastKing gDNA Dispelling RT SuperMix Kit (TIANGEN Biotech), and RT-qPCR was performed using the RealUniversal Color PreMix Kit (TIANGEN Biotech) on an ABI QuantStudio 5 system (Applied Biosystems, Waltham, MA, USA). The specific primers are shown in Additional file 4: Table S1. The PCR cycling conditions were as follows: pre-denaturation at 95 °C for 15 min followed by 40 cycles at 95 °C for 10 s and 60 °C for 34 s. The relative mRNA expression levels were quantified using the 2^−ΔΔCT method. RPS18 served as an internal control.
A total protein extraction kit (Solarbio) was used to extract cell or tissue total protein. The protein concentration was determined by the protein quantitative assay kit (Thermo Fisher Scientific). Then, electrophoresis was performed with 20–50 μg of protein sample. The protein was separated by sodium dodecyl sulfate polyacrylamide gel electrophoresis (SDS-PAGE) and transferred to a 0.22 μm PVDF membrane (Merck Millipore, Darmstadt, Germany). The PVDF membrane was blocked with 5% of nonfat powdered milk in Tris-buffered saline Tween 20 (TBST) for 1 h at room temperature. The membrane incubation with primary antibodies was performed at 4 °C overnight. The antibody information is listed in Additional file 5: Table S2. The membrane was washed with TBST and incubated with HRP-labeled secondary antibodies (1:5000, Abclonal, Wuhan, China) for 1 h at room temperature. Blotted membranes were visualized using enhanced chemiluminescence reagents (Thermo Fisher Scientific). Protein expression was depicted as the intensity of each protein relative to that of β-actin using ImageJ software.

Take `N#C/N=C1\SCCN1Cc1ccc(Cl)nc1` [thiacloprid]: in experiment [1], the “CD4+ T lymphocytes in the metacestodes and spleen compared with the untreated group” value is recorded as “increased”; the “CD8+ T lymphocytes in the metacestodes and spleen compared with the untreated group” value is listed as “decreased”. For the same compound, the “Collagen fiber deposition in the host-lesion microenvironment (TEM)” value in experiment [2] is given as “can promote”. For the same compound, in experiment [2] (qPCR), the “mRNA expression of MMP1, MMP3, MMP9 and MMP13 in the microenvironment” value was “significantly inhibited”. Further, the “mRNA and protein expression levels of collagen I and III in the host-lesion microenvironment” value in experiment [2] (qPCR, western blot) is reported as “increased”. The “Protein expression levels of MMP1, MMP3, MMP9 and MMP13” value in experiment [2] (western blot) is reported as “decreased”.
